The results in this text go back to PMC12957798, “Adaptation of plateau frog peptide: From antimicrobial to angiogenic and proliferative functions” (Journal of Advanced Research, 2025).

The test system of series [1] is HUVEC cells. The series is described as follows: In vitro wound healing (migration) assay, HUVEC. In kind it is cell-based, Human. The conditions noted are these: SC17-2 concentrations exceeding 10 μg/mL, 16 h.
In series [2] the test system is p-ERK/ERK. Nature of the series: Western blot p-ERK/ERK in HaCaT. The format is cell-based, Human. The note with it: SC17-2 20 μg/mL, 24 h (16 h elsewhere in the source), n = 3. Here is the method:
(§1) HaCaT was inoculated in 12-well plates (2 × 10^5 cells/well) and cultured for 24 h. Afterwards, HaCaT cells were treated with equal amounts of VEGF, SC17-2, and PBS for 16 h. Cells were washed with PBS, after which the samples were collected and added to 1 mL of RIPA lysate containing protease inhibitors and phosphatase inhibitors and placed on ice for 30 min. Allowed to be after sufficient lysis, the supernatant was centrifuged and collected to determine the protein concentration using a nanodrop, followed by the addition of SDS sampling buffer and heating at 95 °C for 10 min. Samples were loaded and run on a gel block based on the determined sample concentration, and then electrotransferred onto a 0.45 μm PVDF membrane. […] After washing three times with TBST, proteins were visualised and scanned by enhanced chemiluminescence using the ChemiDoc XRS imaging system (Bio-Rad, Hercules, CA, USA).

Series [3] relates to (p-Smad2/3)/(Smad2/3). The series is described as follows: Western blot p-Smad2/3 / Smad2/3 in HaCaT. In kind it is cell-based, Human. The note with it: SC17-2 20 μg/mL, 24 h (16 h elsewhere in the source), n = 3. Here is the method:
as §1
On the technique in general: A western blot detects proteins with antibodies after separation by electrophoresis.

Series [4] addresses T1, EGFR (Homo sapiens, UniProt P00533). Nature of the series: Bio-Layer Interferometry (BLI). In kind it is binding. Here is the method:
Prepare 20 μg/mL of EGFR protein solution (solvent 0.1 % PBS-Tween), and different concentrations of SC17-2 (5, 10, 20 μg/mL) dissolved using PBST. Biotin was added and incubated at room temperature for 30 min according to the instructions, and the corresponding probes were soaked in PBST for 10 min. The assay was carried out according to the BLI predefined procedure (Octet K2, ForteBio, USA), followed by calculations using the accompanying software, and graphpad was used for graphing.
(Biolayer interferometry detects binding as a change in optical thickness at a sensor tip.)

Series [5] has as its system CD31. The series is described as follows: CD31 immunofluorescence of mouse wound sections (angiogenesis). In kind it is in vivo. The conditions noted are these: 13 days. As for the experimental part:
Use scissors to remove the tissue around the wound, put the tissue into 4 % paraformaldehyde solution, put the tissue in 4 °C for 24 h, use a tissue embedding machine for embedding, use a rotary slicer to section the tissue, put the section into environmentally friendly dewaxing solution to dewax for 3 times, 10 min each time, then use anhydrous ethanol to treat the section for 3 times, 5 min each time, rinse with distilled water and then repair the section by EDTA antigen repair solution. The slides were then incubated overnight at 4 °C with Anti-CD31 Mouse mAb as primary antibody and at room temperature for 50 min, protected from light, in PBS (pH 7.4), shaken and washed 3 times for 5 min each time on a decolourising shaker. Incubate at room temperature for 10 min. Images were captured using a scanner (Pannoramic MIDI), and graphics were processed using imageJ. The results were calculated as follows: relative staining area of blood vessels = An/average (Ac), An indicates the fluorescence staining area of CD31 obtained from the current sample by ImageJ statistics, […], and Ac is the fluorescence staining area of CD31 of all control samples.
ImageJ was used to quantify the percentage of stained area for Masson and the percentage of fluorescent area for CD31. All data were analysed by GraphPad Prism 9.5 software. Data were expressed as mean ± SEM. Comparisons between multiple groups were performed by using one-way analysis of variance (ANOVA) and Tukey's multiple comparison test. Differences between groups were commonly tested by ANOVA, P < 0.05 was considered statistically significant.

Series [6] deals with T1, EGFR. Nature of the series: Surface plasmon resonance (SPR). The format is binding. Here is the method: The analysis of biomolecular interactions was conducted utilising a Biacore S200 biosensor system (S200, Biacore, China). Briefly, the EGFR (20 μg/mL) was immobilised by amine coupling on the surface of a CM5 sensor chip (29104988, Cytiva, China) with a resonance unit (RU) of approximately 2000, using a sodium acetate buffer (10 mM, pH 4) as the immobilisation solution. In order to assess the affinity of SC17-2 for the epidermal EGFR, SC17-2 was injected at a flow rate of 30 μL/min onto a chip containing immobilised EGFR. The injection of SC17-2 was carried out at a flow rate of 30 μL/min at concentrations ranging from 5 to 500 μg/mL. The RU were recorded. The binding dissociation constants (KD) were determined using BiacoreTM Insight software.
For orientation: Surface plasmon resonance follows binding to a sensor surface in real time, without labels.

The test system of series [7] is HSF cells. Nature of the series: In vitro wound healing (migration) assay, HSF. The format is cell-based, Human. The conditions noted are these: SC17-2 concentrations exceeding 10 μg/mL, 16 h.
The nature of series [8]: Antioxidant activity (stated, no separate method). The conditions noted are these: no separate method or value printed.
Series [9] is described as follows: Circular dichroism spectroscopy. In kind it is physicochemical.
The test system of series [10] is TGF-α mRNA. Nature of the series: qPCR TGF-α mRNA in HaCaT. In kind it is cell-based, Human. The conditions noted are these: SC17-2 20 μg/mL, n = 6. As for the experimental part: (§2) HaCaT cells were treated as above, washed twice with PBS and lysed using Trizol for 5 min, after which 200 μL of chloroform was added and shaken vigorously for 30 s. The cells were centrifuged for 15 min to separate the upper and lower layers (12,500 g, 4 °C). The supernatant was vortexed with an equal amount of isopropanol and left to stand for 10 min, and then centrifuged again under the same conditions to retain only the white precipitate. 500 μL of 75 % ethanol was added and centrifuged (12000 rpm, 4 °C, 10 min) and the operation was repeated twice. Afterwards, DEPC was used for dissolution and the concentration was determined by nanodrop. One-step reverse transcription to DNA was performed using 5 × MIX, after which primers and 2 × MIX were added and placed. qPCR was performed (LightCycler96, F. Hoffmann-La Roche, Swiss).

In series [11] the test system is TGF-β. Nature of the series: Western blot TGF-β in HaCaT. The format is cell-based, Human. The conditions noted are these: SC17-2 20 μg/mL, 24 h (16 h elsewhere in the source), n = 3. As for the experimental part: as §1
Series [12] concerns TGF-β1 mRNA. The series is described as follows: qPCR TGF-β1 mRNA in HaCaT. In kind it is cell-based, Human. The note with it: SC17-2, HaCaT. Here is the method: as §2

On to “SFMPLSIPIMCKMLSKC [SC17-2, peptide of the pleskein family from the skin transcriptome of the frog Nanorana parkeri, made by solid-phase synthesis]”, for which the HUVEC migration entry in series [1] is “notable enhancement”. In series [2], the ERK phosphorylation entry is “significantly increased ERK phosphorylation”. For the same sequence, the Smad2/3 phosphorylation result in series [3] is recorded as “significantly increased Smad2/3 phosphorylation”. For the same sequence, the “EGFR binding, dose dependence” value in [4] and in series [6] was “binds in a dose-dependent manner” throughout. Besides, in [5] (CD31 images), the “number of blood vessels in wounds, dose dependence” value is reported as “number of blood vessels in the wounds increased with the increase of SC17-2 concentration”. In addition, in series [5] (SC17-2 5 μg/mL, n = 9), the “blood vessel formation (CD31 staining)” value is “promoted blood vessel formation”. In addition, in [5] (SC17-2 10 and 20 μg/mL, n = 9), the “proangiogenic effect compared with VEGF (CD31 staining)” value was “more pronounced than that of VEGF”. Also, in [7], the HSF migration result is given as “notable enhancement”. The antioxidant activity result in [8] is listed as “demonstrated antioxidant activity”. Besides, the secondary structure composition result in series [9] (0 mM (H2O) and 60 mM SDS) was “primarily of random coil and β-sheet structures, with only trace amounts of γ-turn and α-helix structures”. Also, the “secondary structure, change with SDS” value in series [9] (0 mM (H2O) vs 60 mM SDS) is “remained largely unchanged”. The “mRNA expression of TGF-α” value in [10] was “significantly elevated”. Moreover, the “expression of TGF-β” value in series [11] is “significantly increase the expression of TGF-β”. For the same sequence, the “TGF-β1 expression (qPCR)” value in series [12] is recorded as “simultaneous increase”.
